US4826854A, “Certain cycloalka-(b)-pyrazolo(3,4-d)-pyridin-3-one derivatives” (Ciba-Geigy Corporation, priority 1987, dated 1989)

What was measured:
benzodiazepine receptor = benzodiazepine receptor binding and agonist/antagonist profile (3H-flunitrazepam displacement, rat brain membranes)
Method: The benzodiazepine receptor binding properties indicative of the nervous system regulatory activity of said new compounds are determined in the receptor binding assay in vitro, e.g. similarly to that in Nature 266, 732 (1977) or Proc. Nat. Acad. Sci. USA 74, 3805 (1977). When tritiated flunitrazepam is used, the interaction of other drugs with said receptor can be readily assessed thus: Synaptosnal membranes from rat fore-brain are incubated at 0°-5° for 30 minutes with 0.5 nM tritiated flunitrazepam and various concentrations of the test substance in a buffer medium maintained at pH 7.5. […] The membranes, containing the receptors with various amounts of tritiated flunitrazepam, are filtered onto glass fiber filters, which are then analyzed in a liquid scintillation counter. […]
The pharmacological agonist and/or antagonist/inverse agonist profile of the benzodiazepine receptor modulators of the invention can also be determined by measuring their effect in a rat brain membrane preparation on the displacement of ^3 H-flunitrazepam in the presence or absence of gamma-aminobutric acid (GABA), on the enhancement of ^3 H-muscimol binding by etazolate, or on the binding of ^35 S-butyl bicyclophosphorothionate (TBPS), e.g. as described in J. Pharmacol. Exp. Ther. 231, 572 (1984).

male Wistar rats = assay: Cook-Davidson conflict procedure (anxiolytic effects); assay type: in vivo, rat; conditions: e.g. as determined in the Cook-Davidson model
From the text: Anxiolytic effects are observed, for example, by measuring the antagonism of pentylenetetrazol discriminative stimuli in the rat and according to the Cook-Davidson conflict procedure, using male Wistar rats, e.g. as described in Drug Development Research 6: 313-325 (1985).

rat = assay: discrimination test in the rat; assay type: in vivo; conditions: test compounds administered orally
From the text: Illustrative thereof is the compound of example 1.
The diazepam discrimination test, can also be used to determine benzodiazepine antagonist properties.

SMILES	pharmacological profile at the benzodiazepine receptor (benzodiazepine receptor)	anxiolytic properties (male Wistar rats)	generalization to the discrimination test (rat)
COc1ccc(-n2nc3c4c([nH]cc-3c2=O)CCCCCC4)cc1 [Example 1, 2-(4-methoxyphenyl)-2,3,6,7,8,9,10,11-octahydrocycloocta[b]pyrazolo[3,4-d]pyridin-3(5H)-one]	benzodiazepine agonist profile	demonstrate anxiolytic properties	do not generalize to the discrimination test
O=c1c2c[nH]c3c(c-2nn1-c1ccc(Cl)cc1)CCCCCC3 [Example 2b, 2-(4-chlorophenyl)-2,3,6,7,8,9,10,11-octahydrocycloocta[b]pyrazolo[3,4-d]-pyridin-3(5H)-one]	benzodiazepine agonist profile		
